The term IC50 denotes the concentration at which inhibition is half-maximal.

SMILES strings stand for the structures.

The first assay concerns the target T1, androgen receptor (AR) (Homo sapiens, UniProt P10275, T878A).
T1 construct: stably transfected eGFP-expressing LNCaP human prostate cancer cells (LN-ARR2PB-eGFP) containing an androgen responsive probasin-derived promoter; endogenous in cells; host or cells: LNCaP (LN-ARR2PB-eGFP)
T1 sequence (P10275 1-920 T878A): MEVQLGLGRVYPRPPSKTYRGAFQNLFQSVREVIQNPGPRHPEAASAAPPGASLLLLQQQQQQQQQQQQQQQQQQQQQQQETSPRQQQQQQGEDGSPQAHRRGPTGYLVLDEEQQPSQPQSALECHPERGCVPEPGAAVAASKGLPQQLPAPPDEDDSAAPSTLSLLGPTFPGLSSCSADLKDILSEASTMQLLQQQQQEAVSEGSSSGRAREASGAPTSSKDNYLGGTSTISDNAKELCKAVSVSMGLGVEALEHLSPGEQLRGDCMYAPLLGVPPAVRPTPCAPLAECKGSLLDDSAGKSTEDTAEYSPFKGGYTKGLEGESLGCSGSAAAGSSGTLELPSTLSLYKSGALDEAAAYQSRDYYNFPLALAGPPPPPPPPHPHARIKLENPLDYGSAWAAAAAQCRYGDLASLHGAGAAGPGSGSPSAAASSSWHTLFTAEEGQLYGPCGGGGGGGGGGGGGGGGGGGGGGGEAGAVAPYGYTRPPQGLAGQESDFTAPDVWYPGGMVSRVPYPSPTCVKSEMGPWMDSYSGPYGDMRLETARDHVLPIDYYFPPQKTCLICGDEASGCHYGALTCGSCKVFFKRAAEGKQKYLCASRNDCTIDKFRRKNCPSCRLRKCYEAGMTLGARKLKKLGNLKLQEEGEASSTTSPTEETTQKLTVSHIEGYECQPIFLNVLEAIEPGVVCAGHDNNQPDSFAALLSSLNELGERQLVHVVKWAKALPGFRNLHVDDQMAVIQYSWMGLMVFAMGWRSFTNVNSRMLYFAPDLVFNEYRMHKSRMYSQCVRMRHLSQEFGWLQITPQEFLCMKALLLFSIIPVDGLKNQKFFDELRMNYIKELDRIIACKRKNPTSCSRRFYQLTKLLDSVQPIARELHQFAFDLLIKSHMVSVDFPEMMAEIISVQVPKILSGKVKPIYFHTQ
Nature of the assay: eGFP cellular AR transcription assay. Type of assay: cell-based. The settings on record: LN-ARR2PB-eGFP LNCaP cells, 0.1 nM R1881, 3 days, 0-100 μM compound; read-out: IC50 (eGFP). As to the method: After 5 days, the cells were plated into a 96-well plate (35,000 cells/well) with 0.1 nM of the synthetic androgen R1881 and increasing concentrations (0-100 μM) of compound.
After 5 days, the cells were plated into a 96-well plate (35,000 cells/well) with 0.1 nM R1881 and increasing concentrations (0-100 μM) of compound.
In this assay, the expression of eGFP is under the control of an androgen responsive probasin-derived promoter and can quantify AR transcriptional activity.
Consider `CC1(C)c2ccccc2NC1c1c[nH]c2ccc(N)cc12` (stereo not drawn) [13 538], for which the IC50 came to 7.7 µM.
With `CC1(C)c2cc(Br)ccc2NC1c1c[nH]c2cc(O)ccc12` (stereo not drawn) [13 542], the IC50 was 5.7 µM.
As to `CC1(C)c2ccccc2NC1c1c[nH]c2cc(OCc3ccccc3)ccc12` (stereo not drawn) [13 544], the IC50 amounted to 11.4 µM.
Consider `Cc1cc(-c2c[nH]c3ccccc23)nc2ccccc12` [13 547], for which the IC50 was found to be 5.6 µM.
For `c1ccc(COc2ccc3c(C4Nc5ccccc5C45CCCCC5)c[nH]c3c2)cc1` (stereo not drawn) [13 550], the IC50 was 11.8 µM.
Turning to `Oc1ccc2c(C3Nc4ccccc4C34CCCCC4)c[nH]c2c1` (stereo not drawn) [13 551], the IC50 amounted to 15.5 µM.
As to `CC1(C)c2ccccc2NC1c1c[nH]c2c(CO)cccc12` (stereo not drawn) [13 558], the IC50 came out at 1.6 µM.
In the case of `c1ccc2c(c1)N=C(c1c[nH]c3ncccc13)C21CCCCC1` [13 559], the IC50 was 6.6 µM.
As for `CC1(C)c2ccccc2NC1c1c[nH]c2ncccc12` (stereo not drawn) [13 560], the concentration for half-maximal inhibition (IC50) was determined as 2.3 µM.
Consider `CC1(C)c2ccccc2NC1c1c[nH]c2cnccc12` (stereo not drawn) [13 561], for which the IC50 was determined as 10.7 µM.
Turning to `Fc1cccc2c(-c3ccc4ccccc4n3)c[nH]c12` [13 569], the IC50 stood at 1.6 µM.
Still for that read-out and setting: then `Cc1[nH]c2ccccc2c1-c1ccc2ccccc2n1` [13 570], with 20 µM; and `Cn1cc(-c2ccc3ccccc3n2)c2ccccc21` [13 571], with 1.1 µM; and `c1ccc2nc(-n3ncc4ccccc43)ccc2c1` [13 572], with 0.7 µM.
Same read-out and setting: then `FC(F)(F)c1ccc2c(-c3ccc4ccccc4n3)c[nH]c2c1` [13 580], with 2.9 µM; and `c1cncc(-c2c[nH]c3cnccc23)c1` [13 581], with 4.9 µM; and `c1ccc(COc2ccc3c(-c4ccc5ccccc5n4)c[nH]c3c2)cc1` [13 589], with 5.3 µM.

The assay is the same for the next values; noted with them: LN-ARR2PBeGFP LNCaP cells, 0.1 nM R1881, 3 days incubation; read-out: eGFP IC50.
For `O=C(Nc1ccc(-n2cnc3ccccc32)cc1)c1ccco1` [Compound 6054], the IC50 turned out to be 3.4 µM.
On to `O=C(Nc1n[nH]c2ccc(Br)cc12)c1cc(Br)ccc1O` [Compound 9026], for which the IC50 worked out at 11.7 µM.
For the compound `O=C(Nc1n[nH]c2cc(Br)ccc12)c1cc(Br)ccc1O` [Compound 9027], the IC50 was 7.72 µM.
As to `O=C(Nc1nc2cc(Br)ccc2s1)c1cc(Br)ccc1O` [Compound 9028], the 50% inhibitory concentration (IC50) was determined as 10 µM.
As to `O=C(/C=C/c1c[nH]c2cc(Br)ccc12)c1cc2ccccc2[nH]1` [Compound 9034], the IC50 was determined as 20 µM.
As to `O=C(Nc1cccc(Br)c1O)c1cc2ccc(Br)cc2[nH]1` [Compound 9037], the IC50 is 4.09 µM.
With `O=C(Nc1nc2ccc(Br)cc2s1)c1ccccc1O` [Compound 9039], the IC50 was greater than 200 µM.
For `O=C(Nc1nc2ccc(Br)cc2s1)c1ccc(Br)cc1O` [Compound 9040], the IC50 came out at 39.1 µM.
In the case of `Brc1ccc2cc(CCc3cc4ccc(Br)cc4[nH]3)[nH]c2c1` [Compound 9043], the IC50 was 2.5 µM.
For the compound `c1ccc2[nH]c(-c3n[nH]c4ccccc34)nc2c1` [Compound 13036], the IC50 came to 1.6 µM.
Take `Brc1ccc2nc(-c3c[nH]c4ccccc34)cn2c1` [Compound 13050]: the IC50 turned out to be 9.72 µM.
`Clc1ccc(Nc2nc3ccccc3[nH]2)cc1Cl` [Compound 13186]: the IC50 came out at 5 µM.
For the compound `Cn1cc(CCc2ccncc2)c2ccccc21` [Compound 13202], the half-maximal inhibitory concentration (IC50) was found to be 2.5 µM.
For `O=Nn1cc(-c2cc3ccccc3n2N=O)c2ccccc21` [Compound 13206], the IC50 came to 1.8 µM.
On the same count and under the same terms, then `O=c1[nH]c2ccccc2n1-c1nc2ccccc2[nH]1` [Compound 13214], with 2.2 µM.
As for `Clc1ccc(N/N=C2\CCc3ccccc32)cc1Cl` [Compound 13215], the IC50 amounted to 2 µM.
On to `Cc1cccn2cc(-c3c[nH]c4ccccc34)nc12` [Compound 13216], for which the IC50 worked out at 2.8 µM.
The same measure, in the same setting: then `c1ccc2c(c1)CCN2c1nc2ccccc2o1` [Compound 13220], with 0.7 µM.

Staying with this assay, now noted: eGFP IC50, LN-ARR2PBeGFP LNCaP cells, 0.1 nM R1881, 3 days incubation.
As to `Oc1ccc(Cn2c(-c3ccc(O)cc3)nc3ccccc32)cc1` [Compound 13029], half-maximal inhibition (IC50) required 3.22 µM.

Source of the values: patent US10633338B2, “Binding Function 3 (BF3) site compounds as therapeutics and methods for their use” (THE UNIVERSITY OF BRITISH COLUMBIA, priority 2014, dated 2020).
